Experimental findings from US6673364B1, “Liposome having an exchangeable component” (The University of British Columbia, priority 1995, dated 2004) are described below.

Data set [1] in a line: 31P-NMR phase preference of equimolar DOPE:cholesterol mixtures with bilayer stabilizing component (BSC). The format is physicochemical. Here is the method: Lipid components were mixed in 1-2 ml of benzene:methanol (95:5, v/v) and then lyophilized for a minimum of 5 hours at a pressure of <60 millitorr using a Virtis lyophilizer equipped with a liquid N2 trap. Multilamellar vesicles (MLVs) were prepared by hydrating the dry lipid mixtures in 150 mM NaCl, buffered with 10 mM Hepes-NaOH, pH 7.4 (Hepes-buffered saline, HBS). Mixtures were vortexed to assist hydration. To produce large unilamellar vesicles (LUVs), MLVs were first frozen in liquid nitrogen and then thawed at 30° C. five times. LUVs were produced by extrusion of the frozen and thawed MLVs ten times through 2 stacked polycarbonate filters of 100 nm pore size at 30° C. and pressures of 200-500 psi (Hope, et al., Biochim. Biophys. Acta, 812:55-65 (1985)).
^31P-NMR spectra were obtained using a temperature controlled Bruker MSL200 spectrometer operating at 81 MHz. Free induction decays were accumulated for 2000 transients using a 4 μs, 90° pulse, 1 sec. interpulse delay, 20 KHz sweep width and Waltz decoupling. A 50 Hz line broadening was applied to the data prior to Fourier transformation. Samples were allowed to equilibrate at the indicated temperature for 30 minutes prior to data accumulation. Lipid concentrations of 30-70 mM were used.

A short description of data set [2]: Lipid mixing (FRET) assay, NaCl-induced fusion of DOPE:DODAC liposomes. To be noted: DOPE:DODAC:PEG-lipid 83:15:2, 300 mM NaCl, POPC sink. Here is the method:
(§1) Lipid mixtures were prepared as described for NMR measurements. The resultant multilamellar vesicles (MLV) were frozen in liquid nitrogen and then thawed at 30° C. five times. Large unilamellar vesicles (LUV) were produced by extrusion of the frozen and thawed MLV ten times through 2 stacked polycarbonate filters of […] pore size at 30° C. and pressures of 200-500 psi (Hope, et al., Biochim. Biophys. Acta 812:55-65 (1985)).
Lipid mixing was measured by a modification of the fluorescence resonance energy transfer (FRET) assay of Struck, et al. (Biochemistry 20:4093-4099 (1981)). […] Fluorescence emission intensity was measured at 517 nm with excitation at 465 nm both before and after the addition of Triton X-100 (final concentration of 0. 5% or 1% when POPC sink was used). Data is presented as either uncorrected fluorescence intensity for short term assays (<1 hour) or as percentage fusion. […] Maximum fusion was determined using mock fused vesicles containing 0.125 mol % of each fluorescent probe. The percentage fusion was calculated as: [formula]
where F(t)=fluorescence intensity at time t; Fo=fluorescence intensity at zero time; FT=fluorescence intensity in the presence of Triton X-100. […]

Data set [3] in a line: Lipid mixing (FRET) assay, Ca2+-induced fusion of PE:PS LUVs. On the procedure: as §1
Lipid mixing was measured by a modification of the fluorescence resonance energy transfer (FRET) assay of Struck, et al. (Biochemistry 20:4093-4099 (1981)). LUVs were prepared containing the fluorescent lipids, N-(7-nitro-2-1,3-benzoxadiazol-4-yl)-dioleoylphosphatidylethanolamine (NBD-PE) and N-(lissamine rhodamine B sulfonyl)-dipalmitoylphosphatidylethanolamine (Rh-PE) at 0.5 mol %. LUVs (50-60 μM) and a three-fold excess of unlabelled target vesicles were mixed in the fluorimeter at 37° C. for short term assays (≦1 hour), or in sealed cuvettes in a dark water bath at 37° C. for longer assays. For measurements of fusion after PEG-lipid transfer, an excess of liposomes prepared from 1-palmitoyl-2-oleoyl-phosphatidylcholine (POPC) was added as a sink for the PEG-lipid. Fluorescence emission intensity was measured at 517 nm with excitation at 465 nm both before and after the addition of Triton X-100 (final concentration of 0. 5% or 1% when POPC sink was used). Data is presented as either uncorrected fluorescence intensity for short term assays (<1 hour) or as percentage fusion. Light scattering controls were performed by replacing LUVs labelled with 0.5 mol % probes with unlabelled vesicles. Maximum fusion was determined using mock fused vesicles containing 0.125 mol % of each fluorescent probe. The percentage fusion was calculated as: [formula]
where F(t)=fluorescence intensity at time t; Fo=fluorescence intensity at zero time; FT=fluorescence intensity in the presence of Triton X-100. M and L represent the same measurements for the mock fused control and the light scattering control respectively.

Where [4] appears, read: PE:PS LUVs, 2 mol % PE-PEG2000, POPC sink.

On to “1-O-methyl-(poly(ethoxy)-O-succinyl-O-(egg)ceramide [egg ceramide-PEG2000]”, for which the “phase preference (31P-NMR)” value was “both bilayer and HII phase lipid are in evidence at most temperatures” in data set [1] (DOPE:cholesterol:BSC 1:1:0.1, 0 to 60° C.); “exclusively bilayer up to 60 °C” in data set [1] (equimolar DOPE:cholesterol, BSC 20 mol % of phospholipid (1:1:0.25)). In addition, the “time for 50% maximal fusion” value in data set [2] (37° C.) is “over 20 hr”.
Turning to “PEG2000 conjugated to dimyristoylphosphatidylethanolamine [DMPE-PEG2000]”, in data set [3] (2, 3, 5 or 10 mol % PEG-lipid, 36fold excess POPC liposomes), the “time delay (lag phase) prior to fusion” value is listed as “increase in the time delay prior to fusion with increasing PEG-lipid concentration”. For the same substance, the “concentration sufficient to eliminate (completely inhibit) Ca2+-induced fusion” value in data set [3] (PE:PS (1:1) LUVs, 5 mM Ca2+, 37° C.) was determined as 2 mol %. In addition, the “time at which fusion was essentially complete” value in data set [3] (setting [4]) was 40 min. In data set [2], the “extent of fusion at 21 hr” value is < 20 % of maximum.
As for “PEG2000 conjugated to dipalmitoylphosphatidylethanolamine [DPPE-PEG2000]”, the “time at which fusion was essentially complete” value in data set [3] (setting [4]) stood at 1440 min. In addition, in data set [3] (relative to DMPE-PEG2000), the “implied decrease in rate of transfer (acyl chains 14 to 16 carbons)” value is 30-40 fold.
With “PEG2000 conjugated to distearoylphosphatidylethanolamine [DSPE-PEG2000]”, the “level of fusion after 24 hours” value in data set [3] (setting [4]) was 20 % of maximum.
